These are literature values, as cited in patent US12390418B2, “Biphasic compositions comprising one or both of carbonate and phosphate” (NATURAL EXTRACTION SYSTEMS, LLC, priority 2021, dated 2025).

The conditions of this series: in water at 20 degrees Celsius.

Take `O=C(O)O` [bicarbonate]: the “association constant for protonation (Kb)” value (“association constant” for short) is on record as “approximately 22 nanomolar”.

For `O=C(O)O` [carbonate], the “association constant” value is on record as “approximately 210 micromolar”.

For `O=P(O)(O)O` [hydrogen phosphate], the “association constant” value was “approximately 160 nanomolar”.

With phosphate, the “association constant” value is “approximately 23 millimolar”.
